In PubChem BioAssay AID248 (DTP/NCI, 2004):
Several values for one entry are separate records, joined by “and”; a condition that tells them apart may be missing. Identical values can stand only once. Inconclusive results and toxic doses are left out. Rule as the data show it: active = T/C of 150% or more; inactive = T/C below 125%.

Tested on: L1210 leukemia ip in BDF1 mice, survival T/C
Assay: NCI In Vivo Anticancer Drug Screen. Data for tumor model L1210 Leukemia (intraperitoneal) in B6D2F1 (BDF1) mice
Conditions: endpoint: mean survival time, higher = longer survival
Summary of the method: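 Tumor was transplanted into mice, which were then dosed with test compound or vehicle alone. Survival was recorded for each group, and the treated figure was expressed relative to the control figure.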

[1] = dose: 100.0 mg/kg/injection, schedule: Q04DX003 (ip), vehicle: saline with Tween-80
[2] = dose: 200.0 mg/kg/injection, schedule: Q04DX003 (ip), vehicle: saline with Tween-80
[3] = dose: 400.0 mg/kg/injection, schedule: Q04DX003 (ip), vehicle: saline with Tween-80
[4] = dose: 100.0 mg/kg/injection, schedule: Q04DX003 (ip), vehicle: Klucel (hydroxypropylcellulose) (HPC)
[5] = dose: 200.0 mg/kg/injection, schedule: Q04DX003 (ip), vehicle: Klucel (hydroxypropylcellulose) (HPC)
[6] = dose: 400.0 mg/kg/injection, schedule: Q04DX003 (ip), vehicle: Klucel (hydroxypropylcellulose) (HPC)
[7] = dose: 100.0 mg/kg/injection, schedule: Q04DX003 (ip), vehicle: saline
[8] = dose: 200.0 mg/kg/injection, schedule: Q04DX003 (ip), vehicle: saline
[9] = dose: 400.0 mg/kg/injection, schedule: Q04DX003 (ip), vehicle: saline

Measured: T/C

CCOC(=O)c1cnc(SCc2ccccc2Cl)nc1N1CC1
inactive: dose: 12.5 mg/kg/injection, schedule: Q01DX001 (ip), vehicle: saline 100 % of control | dose: 12.5 mg/kg/injection, schedule: Q04DX003 (ip), vehicle: saline 100 % of control | dose: 25.0 mg/kg/injection, schedule: Q01DX001 (ip), vehicle: saline 98 % of control | dose: 25.0 mg/kg/injection, schedule: Q04DX003 (ip), vehicle: saline 101 % of control | dose: 28.05 mg/kg/injection, schedule: Q01DX009 (ip), vehicle: acetone 92 % of control | dose: 42.5 mg/kg/injection, schedule: Q01DX009 (ip), vehicle: acetone 112 % of control | dose: 50.0 mg/kg/injection, schedule: Q01DX001 (ip), vehicle: saline 98 % of control | dose: 50.0 mg/kg/injection, schedule: Q04DX003 (ip), vehicle: saline 98 % of control and 100 % of control and 113 % of control | dose: 63.75 mg/kg/injection, schedule: Q01DX009 (ip), vehicle: acetone 117 % of control | dose: 75.0 mg/kg/injection, schedule: Q04DX003 (ip), vehicle: saline 102 % of control and 117 % of control | dose: 110.0 mg/kg/injection, schedule: Q04DX003 (ip), vehicle: saline 104 % of control and 120 % of control | dose: 115.0 mg/kg/injection, schedule: Q04DX003 (ip), vehicle: saline 122 % of control | dose: 170.0 mg/kg/injection, schedule: Q04DX003 (ip), vehicle: saline 115 % of control

N#CCCNc1ccccc1
inactive: dose: 100.0 mg/kg/injection, schedule: Q01DX009 (ip), vehicle: saline with Tween-80 95 % of control | [1] 103 % of control | dose: 200.0 mg/kg/injection, schedule: Q01DX009 (ip), vehicle: saline with Tween-80 106 % of control | [2] 108 % of control | dose: 400.0 mg/kg/injection, schedule: Q01DX009 (ip), vehicle: saline with Tween-80 86 % of control | [3] 105 % of control

CCOC(=O)CNC(c1ccccc1)(c1ccccc1)c1ccccc1
inactive: dose: 100.0 mg/kg/injection, schedule: Q01DX009 (ip), vehicle: Klucel (hydroxypropylcellulose) (HPC) 106 % of control | [4] 91 % of control | dose: 200.0 mg/kg/injection, schedule: Q01DX009 (ip), vehicle: Klucel (hydroxypropylcellulose) (HPC) 90 % of control | [5] 91 % of control | dose: 400.0 mg/kg/injection, schedule: Q01DX009 (ip), vehicle: Klucel (hydroxypropylcellulose) (HPC) 90 % of control | [6] 98 % of control

COc1cc(C)ccc1C1=CCCC1
inactive: dose: 37.5 mg/kg/injection, schedule: Q01DX009 (ip), vehicle: saline 116 % of control | dose: 75.0 mg/kg/injection, schedule: Q01DX001 (ip), vehicle: acetone 102 % of control | dose: 75.0 mg/kg/injection, schedule: Q01DX009 (ip), vehicle: saline 111 % of control | dose: 150.0 mg/kg/injection, schedule: Q01DX001 (ip), vehicle: acetone 91 % of control | dose: 150.0 mg/kg/injection, schedule: Q01DX009 (ip), vehicle: saline 106 % of control | dose: 225.0 mg/kg/injection, schedule: Q01DX009 (ip), vehicle: acetone 86 % of control | dose: 300.0 mg/kg/injection, schedule: Q01DX001 (ip), vehicle: acetone 89 % of control

NO
inactive: dose: 62.5 mg/kg/injection, schedule: Q01DX Z (oral), vehicle: saline 102 % of control | dose: 125.0 mg/kg/injection, schedule: Q01DX Z (oral), vehicle: saline 104 % of control | dose: 250.0 mg/kg/injection, schedule: Q01DX Z (oral), vehicle: saline 114 % of control

C=CC1CC(=O)N1C (centres undefined)
inactive: [7] 100 % of control | [8] 110 % of control | [9] 112 % of control

O=c1[nH]c2cc(Cl)ccc2c2c(Cl)cccc12
inactive: dose: 75.0 mg/kg/injection, schedule: Q01DX001 (ip), vehicle: carboxymethylcellulose (CMC) 91 % of control | dose: 150.0 mg/kg/injection, schedule: Q01DX001 (ip), vehicle: carboxymethylcellulose (CMC) 91 % of control | dose: 300.0 mg/kg/injection, schedule: Q01DX001 (ip), vehicle: carboxymethylcellulose (CMC) 96 % of control

CCC(Cl)COP(=O)(OCC(Cl)CC)OC(C(C)C)P(=O)(OCC(Cl)CC)OCC(Cl)CC (centres undefined)
inactive: [4] 95 % of control | [5] 93 % of control | [6] 90 % of control

COC(=O)c1ccccc1N(C)C(=O)Nc1ccc(F)cc1
inactive: dose: 100.0 mg/kg/injection, schedule: Q01DX001 (ip), vehicle: carboxymethylcellulose (CMC) 94 % of control | dose: 100.0 mg/kg/injection, schedule: Q01DX009 (ip), vehicle: carboxymethylcellulose (CMC) 92 % of control and 97 % of control | dose: 100.0 mg/kg/injection, schedule: Q04DX002 (ip), vehicle: carboxymethylcellulose (CMC) 92 % of control and 100 % of control | dose: 100.0 mg/kg/injection, schedule: Q04DX003 (ip), vehicle: carboxymethylcellulose (CMC) 104 % of control | dose: 200.0 mg/kg/injection, schedule: Q01DX001 (ip), vehicle: carboxymethylcellulose (CMC) 101 % of control | dose: 200.0 mg/kg/injection, schedule: Q01DX009 (ip), vehicle: carboxymethylcellulose (CMC) 87 % of control and 90 % of control | dose: 200.0 mg/kg/injection, schedule: Q04DX002 (ip), vehicle: carboxymethylcellulose (CMC) 98 % of control and 89 % of control | dose: 200.0 mg/kg/injection, schedule: Q04DX003 (ip), vehicle: carboxymethylcellulose (CMC) 102 % of control | dose: 400.0 mg/kg/injection, schedule: Q01DX001 (ip), vehicle: carboxymethylcellulose (CMC) 89 % of control | dose: 400.0 mg/kg/injection, schedule: Q01DX009 (ip), vehicle: carboxymethylcellulose (CMC) 98 % of control and 105 % of control | dose: 400.0 mg/kg/injection, schedule: Q04DX002 (ip), vehicle: carboxymethylcellulose (CMC) 98 % of control | dose: 400.0 mg/kg/injection, schedule: Q04DX003 (ip), vehicle: carboxymethylcellulose (CMC) 90 % of control

CC(C)=CCC/C(C)=C/Cn1cc([N+](=O)[O-])ccc1=O
inactive: dose: 100.0 mg/kg/injection, schedule: Q01DX001 (ip), vehicle: saline with Tween-80 106 % of control | [1] 111 % of control | dose: 200.0 mg/kg/injection, schedule: Q01DX001 (ip), vehicle: saline with Tween-80 101 % of control | [2] 111 % of control | dose: 400.0 mg/kg/injection, schedule: Q01DX001 (ip), vehicle: saline with Tween-80 98 % of control | [3] 102 % of control

C=CCOc1ccnc(OCC=C)n1
inactive: dose: 100.0 mg/kg/injection, schedule: Q01DX009 (ip), vehicle: saline 108 % of control | [7] 105 % of control | dose: 200.0 mg/kg/injection, schedule: Q01DX009 (ip), vehicle: saline 101 % of control | [8] 102 % of control | dose: 400.0 mg/kg/injection, schedule: Q01DX009 (ip), vehicle: saline 87 % of control | [9] 105 % of control

CCC(C)(O)C#N (centres undefined)
inactive: dose: 2.2 mg/kg/injection, schedule: Q01DX Z (ip), vehicle: saline 104 % of control | dose: 3.3 mg/kg/injection, schedule: Q01DX Z (ip), vehicle: saline 94 % of control | dose: 5.0 mg/kg/injection, schedule: Q01DX Z (ip), vehicle: saline 98 % of control

CCCCSP(=S)(SCCCC)c1ccc(Cl)cc1
inactive: dose: 100.0 mg/kg/injection, schedule: Q04DX002 (ip), vehicle: saline with Tween-80 90 % of control | dose: 200.0 mg/kg/injection, schedule: Q04DX002 (ip), vehicle: saline with Tween-80 93 % of control | dose: 400.0 mg/kg/injection, schedule: Q04DX002 (ip), vehicle: saline with Tween-80 97 % of control
